Consider four molecules from ChEMBL document CHEMBL6127031, “Novel multitarget directed ligands inspired by riluzole: A serendipitous synthesis of substituted benzo[b][1,4]thiazepines potentially useful as neuroprotective agents” (Bioorg Med Chem, 2024).

Series [1] can be described thus: Apparent permeability of the compound in PBS buffer at pH 7.4 incubated for 4 hrs under shaking condition by LC-UV-MS analysis. It is filed as ADME. The settings on record: not told.
A short description of series [2]: Permeability of the compound assessed as membrane retention rate by PAMPA method. It is filed as ADME. On the technique in general: In PAMPA a lipid-coated filter parts donor from acceptor wells.
Series [3] concerns Cerebral cortex. Briefly: Neuroprotective activity against OGD/R induced injury in male Wistar rat brain cortical slices assessed as reversal of tissue water gain at 0.001 to 10 uM. Format: functional, tissue-based. The conditions noted are these: dose 0.001-10 µM.
Series [4] concerns Cerebral cortex. Briefly: Neuroprotective activity against OGD/R induced injury in male Wistar rat brain cortical slices assessed as reversal of LDH release at 0.001 to 10 uM by spectrophometric analysis. Format: functional, tissue-based. The conditions noted are these: dose 0.001-10 µM. On the technique in general: LDH in the medium is a marker of cell lysis.
The test system of series [5] is Cerebral cortex. The series is described as follows: Neuroprotective activity against OGD/R induced injury in male Wistar rat brain cortical slices assessed as reversal of tissue water gain at 0.01 to 1 uM. Format: functional, tissue-based. The settings on record: dose 0.01-1 µM.
Series [6] has as its system Cerebral cortex. The series is described as follows: Neuroprotective activity against OGD/R induced injury in male Wistar rat brain cortical slices assessed as reversal of LDH release at 0.01 to 1 uM by spectrophometric analysis. Format: functional, tissue-based. The settings on record: dose 0.01-1 µM.
In series [7] the test system is Cerebral cortex. Briefly: Neuroprotective activity against OGD/R induced injury in male Wistar rat brain cortical slices assessed as effect on LDH release at 1 uM by spectrophometric analysis. It is filed as functional, tissue-based.
For series [8], the system named is Cerebral cortex. Briefly: Neuroprotective activity against OGD/R induced injury in male Wistar rat brain cortical slices assessed as effect on tissue edema at 10 uM. Format: functional, tissue-based.
The subject of series [9] is Cerebral cortex. The series is described as follows: Neuroprotective activity against OGD/R induced injury in male Wistar rat brain cortical slices assessed as effect on LDH release at 10 uM by spectrophometric analysis. Format: functional, tissue-based.
Series [10] concerns SH-SY5Y. Briefly: Inhibition of Na channel in human SH-SY5Y cells assessed as normalized peak current density at 50 uM under -25 mV by whole-cell patch clamp assay. It is filed as cell-based. For orientation: The patch-clamp technique gives a direct electrical read-out from membranes.
Series [11] relates to SH-SY5Y. Briefly: Inhibition of Na channel in human SH-SY5Y cells assessed as reduction in current amplitude at 50 uM by whole-cell patch clamp assay relative to control. Format: cell-based.
The subject of series [12] is SH-SY5Y. Briefly: Inhibition of Na channel in human SH-SY5Y cells assessed as change in channel activation at 50 uM under -30 to + 20 mV by whole-cell patch clamp assay. Format: cell-based.
The subject of series [13] is SH-SY5Y. The series is described as follows: Inhibition of Na channel in human SH-SY5Y cells assessed as maximum conductance at 50 uM by whole-cell patch clamp assay relative to control. It is filed as cell-based.
The test system of series [14] is SH-SY5Y. The series is described as follows: Inhibition of K channel in human SH-SY5Y cells assessed as reduction in steady-state component of KDR current at 50 uM under +60mV by whole-cell patch clamp assay relative to control. It is filed as cell-based.
The subject of series [15] is SH-SY5Y. The series is described as follows: Inhibition of K channel in human SH-SY5Y cells assessed as change in channel activation at 50 uM under +25 to +55 mV by whole-cell patch clamp assay. It is filed as cell-based.
The subject of series [16] is SH-SY5Y. Briefly: Inhibition of K channel in human SH-SY5Y cells assessed as decrease in maximum conductance at 50 uM under +25 to +55 mV by whole-cell patch clamp assay relative to control. It is filed as cell-based.
The test system of series [17] is Cerebral cortex. Briefly: Neuroprotective activity against OGD/R induced injury in male Wistar rat brain cortical slices assessed as reversal of tissue water gain at 0.01 to 10 uM. Format: functional, tissue-based. The settings on record: dose 0.01-10 µM.
Series [18] concerns Cerebral cortex. Briefly: Neuroprotective activity against OGD/R induced injury in male Wistar rat brain cortical slices assessed as reversal of LDH release at 0.01 to 10 uM by spectrophometric analysis. It is filed as functional, tissue-based. The conditions noted are these: dose 0.01-10 µM.

Active and inactive are the calls of the source. No cut-off for these calls is given here.

One may read the Papp as the rate of passage across a membrane or cell layer, normalised by area and donor concentration. As for `CC(C)NCC(O)COc1cccc2ccccc12` (stereo not given) [PROPRANOLOL], in series [1], the apparent permeability (Papp) at 4 h was 17.2 ×10⁻⁶ cm/s. In addition, the R% in [2] came to 10.73%.
For the molecule `N/C(=N\c1nc2ccc([N+](=O)[O-])cc2s1)N1CCCSc2cc([N+](=O)[O-])ccc21`, the outcome in the series on Cerebral cortex [3] and in the series with Cerebral cortex [4] was inactive.
In the case of `N/C(=N\c1nc2ccc(OC(F)(F)F)cc2s1)N1CCCSc2cc(OC(F)(F)F)ccc21`, the result with Cerebral cortex [5] was Active. The outcome in the series with Cerebral cortex [6], in the series with Cerebral cortex [7], in the series on Cerebral cortex [8] and in the series with Cerebral cortex [9] was inactive.
As a reminder, the inhibition is the share of the control response that was lost under treatment. On to `N/C(=N\c1nc2ccccc2s1)N1CCCSc2ccccc21`, for which the apparent permeability coefficient (Papp) at 4 h in series [1] is 17 ×10⁻⁶ cm/s. In series [2], the R% is recorded as 28.24%. In addition, the inhibition entry with SH-SY5Y [10], in the series with SH-SY5Y [12] and in the series with SH-SY5Y [15] was “Active” each time. In addition, the inhibition in the series with SH-SY5Y [11] came to 28.4%; in the series with SH-SY5Y [13] it was 28.4%; in the series with SH-SY5Y [14], 28.4%; in the series on SH-SY5Y [16], 35%. The result in the series with Cerebral cortex [17] and with Cerebral cortex [18] was Active.
